In patent US20150258190A1, “NICOTINAMIDE AS ADJUVANT” (NOVARTIS AG, priority 2012, published 2015):

How the values were obtained:
[1] = cited from earlier work
S. aureus strain Newman = experiment: Survival of vaccinated or mock-injected mice after challenge with a lethal dose of live S. aureus; assay type: in vivo, CD1 mice
Procedure: Four groups of 47 to 48 CD1 mice were treated as follows: CD1 mice were immunized twice via intraperitoneal injection two weeks apart (on day 0 and day 14), and each mouse received 200 μl of (mock-)vaccine. Groups 1 (Alum-Nam) and 2 (Alum) were mock-injected with alum (saline plus 2 mg/ml aluminium-hydroxide), groups 3 (Combo-NAM) and 4 (Combo only) were immunised with the S. aureus combination vaccine of Example 1. Groups 1 (Alum-Nam) and 3 (Combo-NAM) received 250 mg/kg NAM orally one day before and one day after challenge with a lethal dose of live S. aureus.
On day 24 (i.e. 10 days after the second vaccination), the immunised animals of groups 1-4 were challenged by intraperitoneal injection of a bacterial suspension of S. aureus strain Newman (approximately 2 to 5×10^8 CFU). Cultures of S. aureus were centrifuged, washed twice and diluted in PBS before challenge. Survival of the mice was monitored over a 15-day period post infection.
Survival rates were analysed by Mann-Whitney U-test. Mice were daily monitored and euthanized according to humane endpoints, in agreement with Novartis Animal Welfare Policies.

Sta006 = experiment: Antibody titre at day 23 by Luminex assay; assay type: in vivo, mouse; conditions: day 23 after first vaccination
Procedure: (§1) At day 23 after the first vaccination with the S. aureus combination vaccine (i.e. one day prior to the challenge with a lethal dose of S. aureus), the HlaH35L, EsxAB, Sta006 and Sta011 antibody titres for each group of mice described in Example 2 were measured by Luminex assay.

S. aureus = conditions: NAM daily beginning 24 hours prior to or 12 hours after infection with S. aureus; cited from earlier work
Sta011 = experiment: Antibody titre at day 23 by Luminex assay; assay type: in vivo, mice; conditions: day 23 after first vaccination
Procedure: as §1

EsxAB = experiment: Antibody titre at day 23 by Luminex assay; assay type: in vivo, mice; conditions: day 23 after first vaccination
Procedure: as §1

HlaH35L = experiment: Antibody titre at day 23 by Luminex assay; assay type: in vivo, mice; conditions: day 23 after first vaccination
Procedure: as §1

[2] = cited from earlier work; remark: listed apart in the source

SMILES: NC(=O)c1cccnc1 [NAM, nicotinamide]
- dose reported to be reversible hepatotoxic ([1]; animals and humans): > 3 g/day
- side effects associated with treatment of human subjects ([1]; human subjects): no significant side effects
- oncogenic / teratogenic in humans [1]: neither oncogenic nor teratogenic
- mice that survived until 15 days post infection (S. aureus strain Newman; CD1 mice, (mock-)vaccine i.p. day 0 and 14, i.p. challenge day 24, NAM 250 mg/kg orally one day before and one day after challenge): 9%
- mortality in comparison to mice which had received only the vaccine (S. aureus strain Newman; mice immunized with S. aureus combination vaccine, NAM 250 mg/kg orally): significantly decreased
- protecting mice against a lethal infection with S. aureus (S. aureus strain Newman; mice treated with alum alone, NAM 250 mg/kg orally): not effective
- Sta006 antibody titre in serum, group 3 (vaccinated, NAM treatment) vs group 4 (vaccinated, no NAM treatment) (Sta006): No significant difference
- immune killing of the bacteria (S. aureus): dramatically enhances
- Sta011 antibody titre in serum, group 3 (vaccinated, NAM treatment) vs group 4 (vaccinated, no NAM treatment) (Sta011): No significant difference
- EsxAB antibody titre in serum, group 3 (vaccinated, NAM treatment) vs group 4 (vaccinated, no NAM treatment) (EsxAB): No significant difference
- HlaH35L antibody titre in serum, group 3 (vaccinated, NAM treatment) vs group 4 (vaccinated, no NAM treatment) (HlaH35L): No significant difference

SMILES: Nc1cccc2c1CN(C1CCC(=O)NC1=O)C2=O (centres unmarked) [lenalidomide]
- oncogenic / teratogenic in humans [1]: potentially teratogenic
- bone marrow toxicity as adverse effect in patients [1]: frequently observed

SMILES: Nc1cccc2c1C(=O)N(C1CCC(=O)NC1=O)C2=O (centres unmarked) [pomalidomide]
- oncogenic / teratogenic in humans [1]: potentially teratogenic
- bone marrow toxicity as adverse effect in patients [1]: frequently observed

SMILES: N[C@H](CCC(=O)N[C@@H](Cc1c[nH]c2ccccc12)C(=O)O)C(=O)O [γ-D-glutamyl-L-tryptophan]
- adverse effects on administration to human subjects ([2]; human, in vivo): without adverse effects
- clinical effect on oral mucositis ([2]; humans): no clinical effect
